Experimental data: patent publication US20070010444A1, “Novel mediator of neurotransmitter and psychostimulant responses” (The Regents of the University of California, priority 2005, published 2007)
Entries after “also recorded” stand apart in the source; their conditions may differ. Where a name gives a salt, the structure may show the parent alone.

Tests used:
C. elegans [1] = experiment: Muscimol effect on rate of pharyngeal contractions (plates with food); format: in vivo, Caenorhabditis elegans; conditions: N2 and eg814, plates with 0, 0.1 and 1 mM muscimol, 20 and 45 minutes
C. elegans [2] = experiment: Growth of worms on agar plates containing amphetamine
C. elegans [3] = experiment: Chronic effect of amphetamine on pharyngeal pumping (plates, 20 hours); format: in vivo, Caenorhabditis elegans; conditions: 5 mM amphetamine plates
C. elegans [4] = experiment: Acute amphetamine assay of pharyngeal pumping (90 minutes in M9 buffer); format: in vivo, Caenorhabditis elegans

With `NCc1cc(=O)[nH]o1` [muscimol] the inhibition of pumping (C. elegans [1]) was “exhibited similar inhibition of pumping after both 20 and 45 minutes; also recorded: inhibited pumping in both N2 and eg814 worms with a very similar dose response”.
In the case of `C[C@H](N)Cc1ccccc1` [amphetamine, d-amphetamine sulfate], the gravid adults (C. elegans [2]; eg814 mutant, 5 mM amph, plated at first larval stage, after 5 days) is reported as ~100%, the growth rates (C. elegans [2]; eg814 mutant, 5 mM amphetamine) is reported as “unaffected growth rates” and the growth of worms (C. elegans [2]; long-term exposure, millimolar levels of amphetamine in agar plates) is reported as “dramatically suppressed the growth of worms”. The animals reaching adulthood (C. elegans [2]; wild-type (N2), 5 mM amphetamine plates, after 5 days) was “no wild-type animals are adults”, the “rate of pharyngeal contractions” value (C. elegans [3]; N2, first day adults) was “greatly reduced rate of pharyngeal contractions” and the “rate of pharyngeal contractions (pumping)” value (C. elegans [3]; eg814 mutant, first day adults) was “sustained resistance to the inhibition of pumping”. The “pharyngeal contractions, acute effect” value (C. elegans [4]; N2, 90 minutes in solution of 0, 5 and 10 mM amph) was “inhibits pharyngeal contractions of N2 worms in a dose-dependent manner” and the “pharyngeal contractions, acute effect” value (C. elegans [4]; eg814 mutant, 90 minutes in solution of 0, 5 and 10 mM amph) was “exhibits resistance to acute amphetamine”.
